# What was measured:
# Format in all cases: cell-based
# Escherichia coli WP2uvrA = test: Ames test (reverse mutation test), WP2uvrA
# Protocol: (§1) The solvent used herein was dimethyl sulfoxide (DMSO, 100 µL/plate).
# (§2) The mixtures were preincubated at 37° C. for 20 minutes while shaking. […] Two plates per treatment were used.
# [1] = system: Salmonella typhimurium TA1535; test: Ames test (reverse mutation test), TA1535
# Protocol: as §1, §2
# [2] = system: Salmonella typhimurium TA1537; test: Ames test (reverse mutation test), TA1537
# Protocol: as §1, §2
# [3] = system: Salmonella typhimurium TA100; test: Ames test (reverse mutation test), TA100
# Protocol: as §1, §2
# [4] = system: Salmonella typhimurium TA98; test: Ames test (reverse mutation test), TA98
# Protocol: as §1, §2
smiles,measurement,setting,value
Cc1ccc(-n2nc(N)cc2-c2cccc(OCC(F)(F)F)c2)cc1 [Metabolite F],Number of revertant colonies WP2uvrA,"Escherichia coli WP2uvrA; S9 Mix +, dose 2.3 µg/plate",25
same,Number of revertant colonies WP2uvrA,"Escherichia coli WP2uvrA; S9 Mix +, dose 6.9 µg/plate",20
same,Number of revertant colonies WP2uvrA,"Escherichia coli WP2uvrA; S9 Mix +, dose 21 µg/plate",30
same,Number of revertant colonies WP2uvrA,"Escherichia coli WP2uvrA; S9 Mix +, dose 62 µg/plate",24
same,Number of revertant colonies WP2uvrA,"Escherichia coli WP2uvrA; S9 Mix +, dose 185 µg/plate",20
same,Number of revertant colonies WP2uvrA,"Escherichia coli WP2uvrA; S9 Mix +, dose 556 µg/plate",24
same,Number of revertant colonies WP2uvrA,"Escherichia coli WP2uvrA; S9 Mix +, dose 1667 µg/plate",16
same,Number of revertant colonies WP2uvrA,"Escherichia coli WP2uvrA; S9 Mix +, dose 5000 µg/plate",6
same,Number of revertant colonies WP2uvrA,"Escherichia coli WP2uvrA; S9 Mix -, dose 2.3 µg/plate",24
same,Number of revertant colonies WP2uvrA,"Escherichia coli WP2uvrA; S9 Mix -, dose 6.9 µg/plate",23
same,Number of revertant colonies WP2uvrA,"Escherichia coli WP2uvrA; S9 Mix -, dose 21 µg/plate",26
same,Number of revertant colonies WP2uvrA,"Escherichia coli WP2uvrA; S9 Mix -, dose 62 µg/plate",19
same,Number of revertant colonies WP2uvrA,"Escherichia coli WP2uvrA; S9 Mix -, dose 185 µg/plate",13
same,Number of revertant colonies WP2uvrA,"Escherichia coli WP2uvrA; S9 Mix -, dose 556 µg/plate",74
same,Number of revertant colonies WP2uvrA,"Escherichia coli WP2uvrA; S9 Mix -, dose 1667 µg/plate",8
same,Number of revertant colonies WP2uvrA,"Escherichia coli WP2uvrA; S9 Mix -, dose 5000 µg/plate",5
same,potential to induce reverse mutations,Escherichia coli WP2uvrA; WP2uvrA without S9 mix,showed potential to induce reverse mutations
same,Number of revertant colonies TA1535,"[1]; S9 Mix +, dose 1667 µg/plate",0
same,Number of revertant colonies TA1535,"[1]; S9 Mix -, dose 556 µg/plate",0
same,Number of revertant colonies TA1535,"[1]; S9 Mix -, dose 1667 µg/plate",0
same,Number of revertant colonies TA1537,"[2]; S9 Mix +, dose 2.3 µg/plate",41
same,Number of revertant colonies TA1537,"[2]; S9 Mix +, dose 6.9 µg/plate",92
same,Number of revertant colonies TA1537,"[2]; S9 Mix +, dose 21 µg/plate",157
same,Number of revertant colonies TA1537,"[2]; S9 Mix +, dose 62 µg/plate",227
same,Number of revertant colonies TA1537,"[2]; S9 Mix +, dose 185 µg/plate",151
same,Number of revertant colonies TA1537,"[2]; S9 Mix +, dose 556 µg/plate",54
same,Number of revertant colonies TA1537,"[2]; S9 Mix +, dose 1667 µg/plate",39
same,Number of revertant colonies TA1537,"[2]; S9 Mix +, dose 5000 µg/plate",3
same,Number of revertant colonies TA1537,"[2]; S9 Mix -, dose 2.3 µg/plate",9
same,Number of revertant colonies TA1537,"[2]; S9 Mix -, dose 6.9 µg/plate",16
same,Number of revertant colonies TA1537,"[2]; S9 Mix -, dose 21 µg/plate",16
same,Number of revertant colonies TA1537,"[2]; S9 Mix -, dose 62 µg/plate",10
same,Number of revertant colonies TA1537,"[2]; S9 Mix -, dose 185 µg/plate",3
same,Number of revertant colonies TA1537,"[2]; S9 Mix -, dose 556 µg/plate",0
same,Number of revertant colonies TA1537,"[2]; S9 Mix -, dose 1667 µg/plate",0
same,Number of revertant colonies TA1537,"[2]; S9 Mix -, dose 5000 µg/plate",0
same,potential to induce reverse mutations,[2]; TA1537 with S9 mix,showed potential to induce reverse mutations
same,Number of revertant colonies TA100,"[3]; S9 Mix +, dose 2.3 µg/plate",553
same,Number of revertant colonies TA100,"[3]; S9 Mix +, dose 6.9 µg/plate",1417
same,Number of revertant colonies TA100,"[3]; S9 Mix +, dose 21 µg/plate",2888
same,Number of revertant colonies TA100,"[3]; S9 Mix +, dose 62 µg/plate",3713
same,Number of revertant colonies TA100,"[3]; S9 Mix +, dose 185 µg/plate",2889
same,Number of revertant colonies TA100,"[3]; S9 Mix +, dose 556 µg/plate",1288
same,Number of revertant colonies TA100,"[3]; S9 Mix +, dose 1667 µg/plate",1576
same,Number of revertant colonies TA100,"[3]; S9 Mix +, dose 5000 µg/plate",1160
same,Number of revertant colonies TA100,"[3]; S9 Mix -, dose 2.3 µg/plate",107
same,Number of revertant colonies TA100,"[3]; S9 Mix -, dose 6.9 µg/plate",104
same,Number of revertant colonies TA100,"[3]; S9 Mix -, dose 21 µg/plate",115
same,Number of revertant colonies TA100,"[3]; S9 Mix -, dose 62 µg/plate",109
same,Number of revertant colonies TA100,"[3]; S9 Mix -, dose 185 µg/plate",93
same,Number of revertant colonies TA100,"[3]; S9 Mix -, dose 556 µg/plate",62
same,Number of revertant colonies TA100,"[3]; S9 Mix -, dose 1667 µg/plate",58
same,Number of revertant colonies TA100,"[3]; S9 Mix -, dose 5000 µg/plate",40
same,potential to induce reverse mutations,[3]; TA100 with S9 mix,showed potential to induce reverse mutations
same,Number of revertant colonies TA98,"[4]; S9 Mix +, dose 2.3 µg/plate",93
same,Number of revertant colonies TA98,"[4]; S9 Mix +, dose 6.9 µg/plate",218
same,Number of revertant colonies TA98,"[4]; S9 Mix +, dose 21 µg/plate",522
same,Number of revertant colonies TA98,"[4]; S9 Mix +, dose 62 µg/plate",484
same,Number of revertant colonies TA98,"[4]; S9 Mix +, dose 185 µg/plate",287
same,Number of revertant colonies TA98,"[4]; S9 Mix +, dose 556 µg/plate",151
same,Number of revertant colonies TA98,"[4]; S9 Mix +, dose 1667 µg/plate",61
same,Number of revertant colonies TA98,"[4]; S9 Mix +, dose 5000 µg/plate",0
same,Number of revertant colonies TA98,"[4]; S9 Mix -, dose 2.3 µg/plate",25
same,Number of revertant colonies TA98,"[4]; S9 Mix -, dose 6.9 µg/plate",32
same,Number of revertant colonies TA98,"[4]; S9 Mix -, dose 21 µg/plate",21
same,Number of revertant colonies TA98,"[4]; S9 Mix -, dose 62 µg/plate",21
same,Number of revertant colonies TA98,"[4]; S9 Mix -, dose 185 µg/plate",20
same,Number of revertant colonies TA98,"[4]; S9 Mix -, dose 556 µg/plate",19
same,Number of revertant colonies TA98,"[4]; S9 Mix -, dose 1667 µg/plate",6
same,Number of revertant colonies TA98,"[4]; S9 Mix -, dose 5000 µg/plate",0
same,potential to induce reverse mutations,[4]; TA98 with S9 mix,showed potential to induce reverse mutations
